Test results reported in the NIST ThermoML archive (doi:10.1016/j.jct.2006.06.008).

Tests used:
[1] = 101 kPa, Liquid
[2] = xn = mol fraction of the nth substance listed; conditions: 101 kPa, Liquid

CCCO [propan-1-ol]
[1]
Conditions	mass density [kg/m3]	speed of sound [m/s]	viscosity [mPa·s]
293.15 K	803.59	1223	2.159
298.15 K	799.58	1206	1.915
303.15 K	795.55	1189	1.713

CCCCO [butan-1-ol]
[1]
Conditions	mass density [kg/m3]	speed of sound [m/s]	viscosity [mPa·s]
293.15 K	809.5	1257	2.941
298.15 K	805.75	1240	2.571
303.15 K	801.8	1224	2.255

C1CCCC1 [cyclopentane] + CCO
[2]
Conditions	mass density, 293.15 K [kg/m3]	mass density, 298.15 K [kg/m3]	mass density, 303.15 K [kg/m3]	speed of sound, 293.15 K [m/s]	speed of sound, 298.15 K [m/s]	speed of sound, 303.15 K [m/s]	viscosity, 293.15 K [mPa·s]	viscosity, 298.15 K [mPa·s]	viscosity, 303.15 K [mPa·s]
x1 = 0.0488	784.97	780.62	776.23	1157	1139	1122	1.148	1.047	0.956
x1 = 0.1011	780.67	776.25	771.78	1155	1137	1118	1.07	0.977	0.896
x1 = 0.1932	774.13	769.58	764.99	1154	1135	1116	0.955	0.875	0.806
x1 = 0.2926	768.22	763.55	758.83	1157	1136	1116	0.822	0.756	0.696
x1 = 0.3897	763.12	758.34	753.5	1162	1140	1118	0.735	0.679	0.628
x1 = 0.489	758.81	753.94	749.01	1168	1146	1123	0.659	0.609	0.564
x1 = 0.5973	754.7	749.75	744.74	1177	1153	1130	0.582	0.54	0.502
x1 = 0.7012	751.29	746.28	741.2	1186	1162	1137	0.521	0.487	0.456
x1 = 0.7992	748.53	743.48	738.38	1196	1171	1146	0.475	0.446	0.42
x1 = 0.8886	746.41	741.36	736.25	1208	1182	1156	0.448	0.423	0.4
x1 = 0.9495	745.36	740.33	735.23	1217	1192	1166	0.44	0.417	0.394
x1 = 1	744.52	739.55	734.54	1232	1206	1180	0.439	0.416	0.394

C1CCCC1 [cyclopentane] + CCCO
[2]
Conditions	mass density, 293.15 K [kg/m3]	mass density, 298.15 K [kg/m3]	mass density, 303.15 K [kg/m3]	speed of sound, 293.15 K [m/s]	speed of sound, 298.15 K [m/s]	speed of sound, 303.15 K [m/s]	viscosity, 293.15 K [mPa·s]	viscosity, 298.15 K [mPa·s]	viscosity, 303.15 K [mPa·s]
x1 = 0.0461	800.15	796.09	791.98	1219	1202	1184	2.035	1.809	1.613
x1 = 0.09	796.74	792.61	788.44	1216	1198	1180	1.859	1.655	1.479
x1 = 0.1885	789.64	785.36	781.04	1209	1190	1171	1.571	1.406	1.275
x1 = 0.2951	782.12	777.69	773.21	1204	1183	1163	1.284	1.159	1.052
x1 = 0.4056	774.79	770.22	765.59	1200	1178	1157	1.057	0.961	0.875
x1 = 0.5051	768.67	763.96	759.2	1199	1176	1153	0.867	0.79	0.725
x1 = 0.61	762.67	757.84	752.96	1199	1175	1152	0.712	0.656	0.608
x1 = 0.7109	757.16	752.26	747.29	1200	1176	1152	0.594	0.553	0.514
x1 = 0.8225	751.67	746.7	741.66	1206	1181	1156	0.507	0.476	0.448
x1 = 0.9134	747.4	742.5	737.43	1214	1188	1163	0.46	0.434	0.41
x1 = 0.9532	745.94	740.91	735.84	1219	1193	1168	0.447	0.422	0.4
x1 = 1	744.52	739.55	734.54	1232	1206	1180	0.439	0.416	0.394
